Twelve compounds from paper PMC9833666, “Designing and identifying β-hairpin peptide macrocycles with antibiotic potential” (Science Advances, 2023) can be followed below.

The experiment concerns Escherichia coli W3110. The experiment is classed as cell-based. To be noted: for Ec W3110 MIC MH: E. coli W3110, MH medium; for Ec W3110 MIC RPMI: E. coli W3110, RPMI medium.
Setting [1] is: E. coli W3110, standard Mueller-Hinton broth, 37°C, 18-24 h, median of n=3.

Where two headings read alike, the source gives them in different places. Bridge positions count the residues as written; N and C are the ends. Peptide text beside a SMILES is read from it. A value given as a limit tells only on which side of the number the result lay.

Description: MICs were performed by a modifiedClinical and Laboratory Standards Institute) procedure. […] Separately, E. coli W3110 or A. baumannii AB5075 was grown overnight in 5 ml of standard MH at 37°C. Cells from these cultures were diluted to a concentration of 5 × 10^5 to 6 × 10^5 cells/ml in either standard MH, MHII, RPMI, or fetal bovine serum, and 90 μl was added to each well of the 96-well plate containing diluted peptide. Plates were wrapped twice in parafilm and incubated at 37°C for 18 to 24 hours. Wells were examined by eye against wells with no bacteria for signs of growth. MICs were reported as the minimum concentration with no observable growth. In cases where triplicate samples differed, the concentration supported by the median of the three replicates was reported.

For `CC[C@H](C)[C@@H]1NC(=O)[C@H](CC(=O)O)NC(=O)[C@H](C(C)C)NC(=O)[C@H](CCCCN)NC(=O)[C@H]([C@@H](C)CC)NC(=O)[C@H](CCCNC(=N)N)NC(=O)[C@@H](N)CSSC[C@@H](C(=O)O)NC(=O)[C@H](CCC(=O)O)NC(=O)[C@H](CC(C)C)NC(=O)[C@H](CCC(N)=O)NC(=O)[C@H](CC(C)C)NC(=O)[C@H](CCCNC(=N)N)NC(=O)[C@H](C(C)C)NC(=O)[C@H](CCCNC(=N)N)NC(=O)CNC(=O)[C@H](CCCNC(=N)N)NC(=O)[C@H](CCCNC(=N)N)NC(=O)[C@H](CC(=O)O)NC(=O)[C@H](CC(=O)O)NC1=O` [SyRC-7] (H-CRIKVDIDDRRGRVRLQLEC-OH; disulfide 1-20), the “W3110 MIC” value (W3110) was more than 256 µg/mL.
For the compound `CC[C@H](C)[C@@H]1NC(=O)[C@H](CC(N)=O)NC(=O)[C@H](C(C)C)NC(=O)[C@H](CCCCN)NC(=O)[C@H]([C@@H](C)CC)NC(=O)[C@H](CCCNC(=N)N)NC(=O)[C@@H](N)CSSC[C@@H](C(=O)O)NC(=O)[C@H](CCC(=O)O)NC(=O)[C@H](CC(C)C)NC(=O)[C@H](CCC(=O)O)NC(=O)[C@H](CC(C)C)NC(=O)[C@H](CCCNC(=N)N)NC(=O)[C@H](CC(C)C)NC(=O)[C@H](CCCNC(=N)N)NC(=O)[C@H](CCCNC(=N)N)NC(=O)[C@H](CO)NC(=O)[C@H](CCCNC(=N)N)NC(=O)[C@H](CC(=O)O)NC(=O)[C@H](CC(=O)O)NC1=O` [SyRC-8] (H-CRIKVNIDDRSRRLRLELEC-OH; disulfide 1-20), under “W3110”, the “W3110 MIC” value was more than 256 µg/mL.
Regarding `CC[C@H](C)[C@@H]1NC(=O)[C@H](CCCNC(=N)N)NC(=O)[C@H](C(C)C)NC(=O)[C@H](CCCNC(=N)N)NC(=O)[C@@H](N)CSSC[C@@H](C(=O)O)NC(=O)[C@H](CCC(N)=O)NC(=O)[C@H](C(C)C)NC(=O)[C@H](CCC(N)=O)NC(=O)[C@H](CC(C)C)NC(=O)[C@H](CCCNC(=N)N)NC(=O)[C@H](C(C)C)NC(=O)[C@H]([C@@H](C)O)NC(=O)CNC(=O)[C@H](CO)NC(=O)CNC(=O)[C@H](CC(=O)O)NC(=O)[C@H](CC(N)=O)NC(=O)[C@H](C(C)C)NC(=O)[C@H](CC(N)=O)NC1=O` [SyRC-10] (H-CRVRINVNDGSGTVRLQVQC-OH; disulfide 1-20), the “W3110 MIC” value (W3110) is more than 256 µg/mL.
Same read-out and setting: the value for `CC[C@H](C)[C@@H]1NC(=O)[C@H](CCCNC(=N)N)NC(=O)[C@H](C(C)C)NC(=O)[C@H](CCCNC(=N)N)NC(=O)[C@@H](N)CSSC[C@@H](C(=O)O)NC(=O)[C@H](CCC(N)=O)NC(=O)[C@H](C(C)C)NC(=O)[C@H](CCC(N)=O)NC(=O)[C@H](CC(C)C)NC(=O)[C@H](CCCCN)NC(=O)[C@H](CC(C)C)NC(=O)[C@H]([C@@H](C)O)NC(=O)CNC(=O)CNC(=O)[C@H](CCCNC(=N)N)NC(=O)[C@H](CC(N)=O)NC(=O)[C@H](CC(=O)O)NC(=O)[C@H](C(C)C)NC(=O)[C@H](CC(N)=O)NC1=O` [SyRC-11] (H-CRVRINVDNRGGTLKLQVQC-OH; disulfide 1-20) was more than 256 µg/mL.
Take `CC[C@H](C)[C@@H]1NC(=O)[C@H](CCCNC(=N)N)NC(=O)[C@H]([C@@H](C)CC)NC(=O)[C@H](CCCNC(=N)N)NC(=O)[C@@H](N)CSSC[C@@H](C(=O)O)NC(=O)[C@H](CCC(=O)O)NC(=O)[C@H](C(C)C)NC(=O)[C@H](CCC(N)=O)NC(=O)[C@H](CC(C)C)NC(=O)[C@H](CCCNC(=N)N)NC(=O)[C@H](C(C)C)NC(=O)[C@H]([C@@H](C)O)NC(=O)CNC(=O)CNC(=O)CNC(=O)[C@H](CC(N)=O)NC(=O)[C@H](CC(=O)O)NC(=O)[C@H](C(C)C)NC(=O)[C@H](CC(N)=O)NC1=O` [SyRC-12] (H-CRIRINVDNGGGTVRLQVEC-OH; disulfide 1-20): the “W3110 MIC” value (W3110) is more than 256 µg/mL.
Still for that read-out and setting: the value for `CC[C@H](C)[C@@H]1NC(=O)[C@H](CCCNC(=N)N)NC(=O)[C@H](C(C)C)NC(=O)[C@H](CCCNC(=N)N)NC(=O)[C@@H](N)CSSC[C@@H](C(=O)O)NC(=O)[C@H](CCC(=O)O)NC(=O)[C@H](C(C)C)NC(=O)[C@H](CCC(N)=O)NC(=O)[C@H](CC(C)C)NC(=O)[C@H](CCCCN)NC(=O)[C@H](CC(C)C)NC(=O)[C@H](CCCNC(=N)N)NC(=O)CNC(=O)[C@H](CO)NC(=O)[C@H](CCCNC(=N)N)NC(=O)[C@H](CC(N)=O)NC(=O)[C@H](CC(N)=O)NC(=O)[C@H](C(C)C)NC(=O)[C@H](CC(N)=O)NC1=O` [SyRC-14] (H-CRVRINVNNRSGRLKLQVEC-OH; disulfide 1-20) was more than 256 µg/mL; that for `CC(C)C[C@@H]1NC(=O)[C@H](CCC(=O)O)NC(=O)[C@H](CC(C)C)NC(=O)[C@H](CCCCN)NC(=O)[C@H](CC(C)C)NC(=O)[C@H](CCCNC(=N)N)NC(=O)[C@H](CCCNC(=N)N)NC(=O)CNC(=O)[C@H](CCCNC(=N)N)NC(=O)[C@H](CC(=O)O)NC(=O)[C@H](CC(=O)O)NC(=O)[C@H](C(C)C)NC(=O)[C@H](CC(N)=O)NC(=O)[C@H](C(C)C)NC(=O)[C@H](CCCCN)NC(=O)[C@H](C(C)C)NC(=O)[C@H](CCCNC(=N)N)NC(=O)[C@@H](N)CSSC[C@@H](C(=O)O)NC(=O)[C@H](CCC(N)=O)NC1=O` [SyRC-15] (H-CRVKVNVDDRGRRLKLELQC-OH; disulfide 1-20) was more than 256 µg/mL.
For `CC[C@H](C)[C@@H]1NC(=O)[C@H](CCCNC(=N)N)NC(=O)[C@@H](N)CSSC[C@@H](C(=O)O)NC(=O)[C@H](CCC(N)=O)NC(=O)[C@H](C(C)C)NC(=O)[C@H](CCC(N)=O)NC(=O)[C@H](CC(C)C)NC(=O)[C@H](CCCNC(=N)N)NC(=O)[C@H](C(C)C)NC(=O)[C@H](CCCNC(=N)N)NC(=O)[C@H](CCCNC(=N)N)NC(=O)[C@H](CCCNC(=N)N)NC(=O)[C@H](CCCNC(=N)N)NC(=O)[C@H](CC(N)=O)NC(=O)[C@H](CC(N)=O)NC(=O)[C@H](C(C)C)NC(=O)[C@H](CC(=O)O)NC(=O)[C@H](C(C)C)NC(=O)[C@H](CCCCN)NC1=O` [SySA-1] (H-CRIKVDVNNRRRRVRLQVQC-OH; disulfide 1-20; N-terminus and C-terminus assumed), the Ec W3110 MIC MH was found to be 128 µg/mL and the Ec W3110 MIC RPMI was 64 µg/mL. Besides, the “W3110 MIC MH” value under setting [1] was found to be 128 µg/mL. Moreover, the “W3110 MIC RPMI” value (W3110) came out at 64 µg/mL.
Compound `CC[C@H](C)[C@@H]1NC(=O)[C@H](CCCNC(=N)N)NC(=O)[C@@H](N)CSSC[C@@H](C(=O)O)NC(=O)[C@H](CCC(N)=O)NC(=O)[C@H](C(C)C)NC(=O)[C@H](CCC(=O)O)NC(=O)[C@H](CC(C)C)NC(=O)[C@H](CCCNC(=N)N)NC(=O)[C@H](CC(C)C)NC(=O)[C@H](CCCNC(=N)N)NC(=O)[C@H](CCCNC(=N)N)NC(=O)CNC(=O)[C@H](CCCNC(=N)N)NC(=O)[C@H](CC(N)=O)NC(=O)[C@H](CC(N)=O)NC(=O)[C@H](C(C)C)NC(=O)[C@H](CC(N)=O)NC(=O)[C@H](C(C)C)NC(=O)[C@H](CCCCN)NC1=O` [SySA-4] (H-CRIKVNVNNRGRRLRLEVQC-OH; disulfide 1-20; N-terminus and C-terminus assumed) returned an Ec W3110 MIC MH of 256 µg/mL and an Ec W3110 MIC RPMI of 128 µg/mL. Under “W3110”, the “W3110 MIC RPMI” value is 128 µg/mL.
In turn, `CC[C@H](C)[C@@H]1NC(=O)[C@H](CC(N)=O)NC(=O)[C@H]([C@@H](C)CC)NC(=O)[C@H](CCCNC(=N)N)NC(=O)[C@H](C(C)C)NC(=O)[C@H](CCCNC(=N)N)NC(=O)[C@@H](N)CSSC[C@@H](C(=O)O)NC(=O)[C@H](CCC(N)=O)NC(=O)[C@H](CC(C)C)NC(=O)[C@H](CCC(N)=O)NC(=O)[C@H](CC(C)C)NC(=O)[C@H](CCCCN)NC(=O)[C@H](C(C)C)NC(=O)[C@H](CCCNC(=N)N)NC(=O)[C@H](CCCNC(=N)N)NC(=O)[C@H](CCCNC(=N)N)NC(=O)CNC(=O)[C@H](CC(N)=O)NC(=O)[C@H](CC(N)=O)NC1=O` [SySA-7] (H-CRVRININNGRRRVKLQLQC-OH; disulfide 1-20; N-terminus and C-terminus assumed) yielded an Ec W3110 MIC MH of 256 µg/mL and an Ec W3110 MIC RPMI of 32 µg/mL. Where the note is “W3110”, the “W3110 MIC MH” value was 256 µg/mL and the “W3110 MIC RPMI” value was 32 µg/mL.
As to `CC[C@H](C)[C@@H]1NC(=O)[C@H](CCCCN)NC(=O)[C@H]([C@@H](C)CC)NC(=O)[C@H](CCCNC(=N)N)NC(=O)[C@@H](N)CSSC[C@@H](C(=O)O)NC(=O)[C@H](CCC(N)=O)NC(=O)[C@H](C(C)C)NC(=O)[C@H](CCC(N)=O)NC(=O)[C@H](CC(C)C)NC(=O)[C@H](CCCCN)NC(=O)[C@H](CC(C)C)NC(=O)[C@H](CCCNC(=N)N)NC(=O)[C@H](CCCNC(=N)N)NC(=O)[C@H](CO)NC(=O)CNC(=O)[C@H](CC(=O)O)NC(=O)[C@H](CC(N)=O)NC(=O)[C@H](C(C)C)NC(=O)[C@H](CC(N)=O)NC1=O` [SySA-8] (H-CRIKINVNDGSRRLKLQVQC-OH; disulfide 1-20; N-terminus and C-terminus assumed), the Ec W3110 MIC MH amounted to 256 µg/mL and the Ec W3110 MIC RPMI amounted to 256 µg/mL. Further, for the setting “W3110”, the “W3110 MIC MH” value came out at 256 µg/mL and the “W3110 MIC RPMI” value came to 256 µg/mL.
Compound `CC[C@H](C)[C@@H]1NC(=O)[C@H](CCCCN)NC(=O)[C@H](CC(C)C)NC(=O)CNC(=O)[C@H](CCCNC(=N)N)NC(=O)[C@H](CCCNC(=N)N)NC(=O)[C@H](CCCNC(=N)N)NC(=O)[C@H](CC(N)=O)NC(=O)[C@H](CC(N)=O)NC(=O)[C@H](CC(C)C)NC(=O)[C@H](CCCNC(=N)N)NC(=O)[C@H](C(C)C)NC(=O)[C@H](CCCNC(=N)N)NC(=O)[C@H](C(C)C)NC(=O)[C@@H](N)CSSC[C@@H](C(=O)O)NC(=O)[C@H](C(C)C)NC(=O)[C@H](CCC(N)=O)NC(=O)[C@H](CC(C)C)NC(=O)[C@H](CO)NC1=O` [SySA-9] (H-CVRVRLNNRRRGLKISLQVC-OH; disulfide 1-20; N-terminus and C-terminus assumed) yielded an Ec W3110 MIC MH of 128 µg/mL and an Ec W3110 MIC RPMI of 8 µg/mL. Besides, under setting [1], the “W3110 MIC MH” value was 128 µg/mL. Moreover, under “W3110”, the “W3110 MIC RPMI” value was 8 µg/mL.
